The text below walks through data of patent EP1333824B1, “TREATMENT OF SEXUAL DYSFUNCTION WITH BOMBESIN RECEPTOR ANTAGONISTS” (Warner-Lambert Company LLC, priority 2000, dated 2002).

One assay concerns conscious male rat. Kind of assay: Penile intracavernosal pressure in the conscious male rat (telemetry). Type of assay: in vivo. The protocol:
In addition to treating women with FSD, bombesin antagonists will be useful in treating male erectile dysfunction (MED. Both the non-selective BB1/2 antagonists (Compound 1; 10mg/kg sc) and the selective BB1 receptor antagonist (Compound 3; 15mg/kg sc) is pro-erectile in a conscious rat model of penile erection (Figures 24 and 25). Erectile responses were recorded by measuring intracavernosal pressure using surgically implanted telemetric device. The specific details the surgical procedures, data acquisition and analysis can be found in detail in Bemabe 1999.
Compound 1 and compound 3 were dissolved in 50% β-cyclodextrin in saline. They were administered at a dose of 15mg/kg subcutaneously (sc). […] These increases equate to penile erection. Both Compounds 1 and 3 induced a number of erections in a similar manner to those observed with apomorphine or melanotan-II - both of which are clinically proven agents that are effective in the treatment of MED. Moreover the amplitude of the increases observed were similar to those observed with apomorphine or melanotan-II. The mechanism of action is thought to be similar to the effects on female genital flow ie CNS potentiation of the descending neuronal pathways that control penile erection.

For assay [1], the system named is Female New Zealand rabbits. Kind of assay: Pelvic nerve-stimulated female genital blood flow, anaesthetised rabbit model of sexual arousal. Format: in vivo. The protocol:
Female New Zealand rabbits (~2.5kg) were pre-medicated with a combination of Medetomidine (Domitor®) 0.5ml/kg i.m., and Ketamine (Vetalar®) 0.25ml/kg i.m. whilst maintaining oxygen intake via a face mask. The rabbits were tracheotomised using a Portex™ uncuffed endotracheal tube 3 ID., connected to ventilator and maintained at a ventilation rate of 30-40 breaths per minute, with an approximate tidal volume of 18-20 ml, and a maximum airway pressure of 10 cm H2O. Anaesthesia was then switched to Isoflurane and ventilation continued with O2 at 21/min. The right marginal ear vein was cannulated using a 23G or 24G catheter, and Lactated Ringer solution perfused at 0.5ml/min. The rabbit was maintained at 3% Isoflurane during invasive surgery, dropping to 2% for maintenance anaesthesia.
The left groin area of the rabbit was shaved and a vertical incision was made approximately 5cm in length along the thigh. The femoral vein and artery were exposed, isolated and then cannulated with a PVC catheter (17G) for the infusion of drugs and compounds. Cannulation was repeated for the femoral artery, inserting the catheter to a depth of 10cm to ensure that the catheter reached the abdominal aorta. This arterial catheter was linked to a Gould system to record blood pressure. Samples for blood gas analysis were also taken via the arterial catheter. Systolic and diastolic pressures were measured, and the mean arterial pressure calculated using the formula (diastolic x2 + systolic) ö3. Heart rate was measured via the pulse oxymeter and Po-ne-mah data acquisition software system (Ponemah Physiology Platform, Gould Instrument Systems Inc). A ventral midline incision was made into the abdominal cavity. The incision was about 5cm in length just above the pubis. The fat and muscle was bluntly dissected away to reveal the hypogastric nerve which runs down the body cavity. It was essential to keep close to the side curve of the pubis wall in order to avoid damaging the femoral vein and artery which lie above the pubis. The sciatic and pelvic nerves lie deeper and were located after further dissection on the dorsal side of the rabbit. Once the sciatic nerve is identified, the pelvic nerve was easily located. The term pelvic nerve is loosely applied; anatomy books on the subject fail to identify the nerves in sufficient detail. However, stimulation of the nerve causes an increase in vaginal and clitoral blood flow, and innervation of the pelvic region. The pelvic nerve was freed away from surrounding tissue and a Harvard bipolar stimulating electrode was placed around the nerve. […] A frequency response curve was determined at the start of each experiment in order to determine the optimum frequency to use as a sub-maximal response, normally 4Hz. […]

The target of a further assay is T1, human NMB receptor (BB1) (Homo sapiens, UniProt P28336).
T1 construct: expressed in transfected cells
T1 sequence (P28336 whole entry): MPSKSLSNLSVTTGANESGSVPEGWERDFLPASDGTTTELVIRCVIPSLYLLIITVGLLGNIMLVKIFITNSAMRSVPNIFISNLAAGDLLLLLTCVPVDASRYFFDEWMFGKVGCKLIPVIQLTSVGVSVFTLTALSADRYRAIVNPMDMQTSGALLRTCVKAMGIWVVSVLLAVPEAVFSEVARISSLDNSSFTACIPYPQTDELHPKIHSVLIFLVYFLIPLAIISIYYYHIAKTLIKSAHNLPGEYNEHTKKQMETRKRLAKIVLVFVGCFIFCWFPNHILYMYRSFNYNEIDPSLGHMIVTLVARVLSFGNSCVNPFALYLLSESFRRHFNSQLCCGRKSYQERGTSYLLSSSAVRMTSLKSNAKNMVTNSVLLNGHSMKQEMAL
Kind of assay: BB1 binding assay ([125I][Tyr4]bombesin, CHO-K1 cell membranes). The protocol:
(§1) In the following experiments, measurement of BB1 and BB2 binding was as follows. […] The final pellet was resuspended in assay buffer to a final cell concentration of 1.5 × 10^5/mL. […] Nonspecific binding was defined by 1µM bombesin. […] Radioactivity bound was determined using a gamma counter.
(§2) All competition data was analysed using nonlinear regression utilizing iterative curve-plotting procedures in Prism® (GraphPad Software Inc., San Diego, USA).

A further assay addresses T2, human GRP receptor (BB2) (Homo sapiens, UniProt P30550).
T2 construct: expressed in transfected cells
Kind of assay: BB2 binding assay ([125I][Tyr4]bombesin, CHO-K1 cell membranes). The protocol: as §1, §2

The mark [2] stands for this setting: Table 7, N-terminal sulfonamide derivatives.

T2 sequence (P30550 whole entry): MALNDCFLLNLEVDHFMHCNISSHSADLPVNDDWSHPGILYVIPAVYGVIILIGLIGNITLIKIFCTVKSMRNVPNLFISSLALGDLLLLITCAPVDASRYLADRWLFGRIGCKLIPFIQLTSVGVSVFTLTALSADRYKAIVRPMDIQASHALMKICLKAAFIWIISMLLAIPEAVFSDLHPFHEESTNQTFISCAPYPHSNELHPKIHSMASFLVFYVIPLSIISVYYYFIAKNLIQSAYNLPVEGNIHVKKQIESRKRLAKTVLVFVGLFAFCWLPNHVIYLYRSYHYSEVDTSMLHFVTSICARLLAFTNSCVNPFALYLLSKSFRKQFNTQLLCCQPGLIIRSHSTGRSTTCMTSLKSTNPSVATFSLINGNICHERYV

As to `C[C@@](Cc1c[nH]c2ccccc12)(NC(=O)Nc1ccc([N+](=O)[O-])cc1)C(=O)NCC1(c2ccc(N)cc2)CCCCC1` [Compound 3, (2S)-N-{[1-(4-aminophenyl)cyclohexyl]methyl}-3-(1H-indol-3-yl)-2-methyl-2-{[(4-nitroanilino)-carbonyl]amino}propanamide], the “erectile response (penile erection)” value in the assay with conscious male rat (Compound 1 10mg/kg sc, Compound 3 15mg/kg sc) is given as “pro-erectile”. Further, in the assay with conscious male rat (one hour after 10mg/kg sc Compound 1, 45 minutes after 15mg/kg sc compound 3), the intracavernosal pressure result is on record as “significant increases in intracavernosal pressure”. For the same compound, the “basal genital blood flow in the absence of PNS” value in assay [1] (15mg/kg sc) is “no effect”. Moreover, in assay [1] (15mg/kg sc in 50% β-cyclodextrin in saline), the “pelvic-nerve stimulated (PNS) increases in genital (vaginal and clitoral) blood flow” value is listed as “potent enhancer”.

The IC50 is the point on the concentration scale where inhibition reaches its midpoint. Lower therefore signals higher potency. For `C[C@@](Cc1c[nH]c2ccccc12)(NC(=O)c1ccccc1)C(=O)NCC1(c2ccccn2)CCCCC1` [Example 32, N-{(S)-2-(1H-Indol-3-yl)-1-methyl-1-[(1-pyridin-2-yl-cyclohexylmethyl)-carbamoyl]-ethyl}-benzamide], the IC50 at human NMB receptor (BB1) (Table 3, N-acyl derivatives) turned out to be 2.5 µM.

`Cc1ccc(C(=O)N[C@@](C)(Cc2c[nH]c3ccccc23)C(=O)NCC2(c3ccccn3)CCCCC2)cc1` [Example 33, N-{(S)-2-(1H-Indol-3-yl)-1-methyl-1-[(1-pyridin-2-yl-cyclohexylmethyl)-carbamoyl]-ethyl}-4-methyl-benzamide] showed an IC50 at human NMB receptor (BB1) (Table 3, N-acyl derivatives) of 2.5 µM.

Consider `CN(C)c1cccc(C(=O)N[C@@](C)(Cc2c[nH]c3ccccc23)C(=O)NCC2(c3ccccn3)CCCCC2)c1` [Example 42, Dimethylamino-N-{(S)-2-(1H-indol-3-yl)-1-methyl-1-[(1-pyridin-2-yl-cyclohexyl-methyl)-carbamoyl]-ethyl}-benzamide], for which the IC50 was > 10 µM on human GRP receptor (BB2) (Table 3, N-acyl derivatives) and 2.52 µM at human NMB receptor (BB1) (Table 3, N-acyl derivatives).

Consider “(S)-3-(1H-Indol-3-yl)-2-methyl-2-(nitro-trifluoromethyl-benzenesulfonylamino)-N-(1-pyridin-2-yl-cyclohexylmethyl)-propionamide [Example 167]”, for which the IC50 is > 10 µM on human GRP receptor (BB2) (setting [2]) and 0.758 µM on human NMB receptor (BB1) (setting [2]).
